In patent publication US20090298834A1, “4-(AMINOMETHYL)CYCLOHEXANAMINE DERIVATIVES AS CALCIUM CHANNEL BLOCKERS” (priority 2008, published 2009) one finds IC50 data, which are given here for 23 molecules.

A value given as a limit tells only on which side of the number the result lay.

For test [1], the target named is T1, human α1G T-type channels (Homo sapiens, UniProt O43497).
T1 construct: expressed in transfected cells; host or cells: HEK 293
The experiment in a line: T-type calcium channel block, whole cell patch clamp (α1G). The test is classed as cell-based. To be noted: HEK cells stably expressing human α1G; mainly non-inactivated protocol; values above 10 μM represented as 10 μM, values below 0.30 μM represented as 0.30 μM. As for the experimental part: (§1) T-type calcium channel blocking activity was assayed in human embryonic kidney cells, HEK 293, stably transfected with the T-type calcium channel subunits. Briefly, cells were cultured in Dulbecco's modified eagle medium (DMEM) supplemented with 10% fetal bovine serum, 200 U/ml penicillin and 0.2 mg/ml streptomycin at 37° C. with 5% CO2. At 85% confluency cells were split with 0.25% trypsin/1 mM EDTA and plated at 10% confluency on glass coverslips. At 12 hours the medium was replaced and the cells stably transfected using a standard calcium phosphate protocol and the appropriate calcium channel cDNA's. Fresh DMEM was supplied and the cells transferred to 28° C./5% CO2. Cells were incubated for 1 to 2 days prior to whole cell recording.
(§2) Standard patch-clamp techniques were employed to identify blockers of T-type currents. Briefly, previously described HEK cell lines stably expressing human α1G, α1H and α1I T-type channels were used for all the recordings (passage #: 4-20, 37° C., 5% CO2). Whole cell patch clamp experiments were performed using an Axopatch 200B amplifier (Axon Instruments, Burlingame, Calif.) linked to a personal computer equipped with pCLAMP software. Data were analyzed using Clampfit (Axon Instruments) and SigmaPlot 4.0 (Jandel Scientific). To obtain T-type currents, plastic dishes containing semi-confluent cells were positioned on the stage of a ZEISS AXIOVERT S100 microscope after replacing the culture medium with external solution (see below). Whole-cell patches were obtained using pipettes (borosilicate glass with filament, O.D.: 1.5 mm, I.D.: 0.86 mm, 10 cm length), fabricated on a SUTTER P-97 puller with resistance values of ˜5 MΩ (see below for internal solution).
(§3) In the non-inactivating protocol, the holding potential is set at −110 mV and with a pre-pulse at −100 mV for 1 second prior to the test pulse at −40 mV for 50 ms. In the inactivation protocol, the pre-pulse is at approximately −85 mV for 1 second, which inactivates about 15% of the T-type channels.
(§4) Test compounds were dissolved in external solution, 0.1-0.01% DMSO. After 10 min rest, they were applied by gravity close to the cell using a WPI microfil tubing. The “non-inactivated” pre-pulse was used to examine the resting block of a compound. The “inactivated” protocol was employed to study voltage-dependent block. However, the initial data shown below were mainly obtained using the non-inactivated protocol only. . IC50 values are shown for various compounds of the invention in Table 4 for the drug of interest. Values are shown in μM and values above 10 μM are simply represented as 10 μM.
(In general: Patch clamp records ionic current or voltage across a cell membrane.)

Test [2] concerns the target T2, human α1H T-type channels (Homo sapiens, UniProt O95180).
T2 construct: expressed in transfected cells; host or cells: HEK 293
The experiment in a line: T-type calcium channel block, whole cell patch clamp (α1H). The test is classed as cell-based. To be noted: HEK cells stably expressing human α1H; mainly non-inactivated protocol; values above 10 μM represented as 10 μM. As to the method:
as §1, §2, §3, §4

T2 sequence (O95180 whole entry): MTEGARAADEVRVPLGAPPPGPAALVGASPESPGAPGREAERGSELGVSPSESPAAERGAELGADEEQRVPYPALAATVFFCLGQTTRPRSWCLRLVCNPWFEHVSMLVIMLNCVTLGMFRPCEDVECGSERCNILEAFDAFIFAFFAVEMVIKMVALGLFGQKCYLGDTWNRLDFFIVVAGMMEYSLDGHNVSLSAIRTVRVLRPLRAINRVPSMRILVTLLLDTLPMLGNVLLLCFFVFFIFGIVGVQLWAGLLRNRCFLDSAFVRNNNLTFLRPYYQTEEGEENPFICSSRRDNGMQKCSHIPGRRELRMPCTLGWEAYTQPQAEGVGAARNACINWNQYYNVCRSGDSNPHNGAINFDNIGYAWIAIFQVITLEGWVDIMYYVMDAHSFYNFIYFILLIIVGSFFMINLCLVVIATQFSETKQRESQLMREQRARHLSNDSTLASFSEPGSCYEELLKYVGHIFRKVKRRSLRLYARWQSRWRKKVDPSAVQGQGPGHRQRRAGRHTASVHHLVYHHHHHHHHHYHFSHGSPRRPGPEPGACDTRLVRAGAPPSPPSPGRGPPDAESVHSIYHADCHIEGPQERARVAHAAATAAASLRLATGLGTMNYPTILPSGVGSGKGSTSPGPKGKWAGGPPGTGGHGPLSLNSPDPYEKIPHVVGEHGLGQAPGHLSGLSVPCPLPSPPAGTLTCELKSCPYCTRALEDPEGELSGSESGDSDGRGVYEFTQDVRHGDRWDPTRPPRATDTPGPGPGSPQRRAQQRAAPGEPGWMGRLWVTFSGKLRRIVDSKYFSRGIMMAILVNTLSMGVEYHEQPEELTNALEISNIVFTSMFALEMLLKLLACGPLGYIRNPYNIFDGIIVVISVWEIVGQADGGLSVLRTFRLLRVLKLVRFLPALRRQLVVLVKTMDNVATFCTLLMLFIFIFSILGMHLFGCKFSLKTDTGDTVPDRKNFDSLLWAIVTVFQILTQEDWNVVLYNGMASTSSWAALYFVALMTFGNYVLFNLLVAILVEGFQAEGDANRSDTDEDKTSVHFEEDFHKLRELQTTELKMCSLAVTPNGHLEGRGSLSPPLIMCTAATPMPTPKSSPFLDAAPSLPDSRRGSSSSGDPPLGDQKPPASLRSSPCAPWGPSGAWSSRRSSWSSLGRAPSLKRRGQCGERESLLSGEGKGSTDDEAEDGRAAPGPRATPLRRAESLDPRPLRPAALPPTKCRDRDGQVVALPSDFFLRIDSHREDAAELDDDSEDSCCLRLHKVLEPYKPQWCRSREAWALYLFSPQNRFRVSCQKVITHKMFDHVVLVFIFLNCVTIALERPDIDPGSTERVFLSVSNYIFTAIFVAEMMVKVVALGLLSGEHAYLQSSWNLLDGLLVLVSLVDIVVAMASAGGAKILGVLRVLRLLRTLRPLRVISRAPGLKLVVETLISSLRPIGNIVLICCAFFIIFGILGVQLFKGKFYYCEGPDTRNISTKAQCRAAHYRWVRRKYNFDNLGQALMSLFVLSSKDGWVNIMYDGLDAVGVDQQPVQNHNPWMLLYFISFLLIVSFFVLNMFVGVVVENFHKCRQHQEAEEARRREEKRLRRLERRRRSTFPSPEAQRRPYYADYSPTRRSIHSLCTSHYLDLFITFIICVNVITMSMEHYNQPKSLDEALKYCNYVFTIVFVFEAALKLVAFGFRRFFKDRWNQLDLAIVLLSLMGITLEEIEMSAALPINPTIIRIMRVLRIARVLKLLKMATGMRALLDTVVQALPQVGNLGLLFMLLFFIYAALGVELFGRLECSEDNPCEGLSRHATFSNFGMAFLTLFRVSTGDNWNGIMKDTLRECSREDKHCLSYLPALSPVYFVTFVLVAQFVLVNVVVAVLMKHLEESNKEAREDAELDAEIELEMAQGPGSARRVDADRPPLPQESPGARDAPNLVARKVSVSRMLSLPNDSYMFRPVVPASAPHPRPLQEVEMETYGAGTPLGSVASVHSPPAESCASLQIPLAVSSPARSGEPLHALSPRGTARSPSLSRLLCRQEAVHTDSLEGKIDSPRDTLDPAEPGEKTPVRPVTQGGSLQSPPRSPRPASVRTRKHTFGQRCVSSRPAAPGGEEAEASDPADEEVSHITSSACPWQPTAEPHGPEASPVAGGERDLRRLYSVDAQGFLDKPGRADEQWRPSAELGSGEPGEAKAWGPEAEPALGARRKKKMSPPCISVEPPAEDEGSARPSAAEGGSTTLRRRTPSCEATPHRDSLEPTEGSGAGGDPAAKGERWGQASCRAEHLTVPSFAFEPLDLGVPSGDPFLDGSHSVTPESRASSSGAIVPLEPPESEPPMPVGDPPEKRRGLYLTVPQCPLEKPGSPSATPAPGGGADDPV
T1 sequence (O43497 whole entry): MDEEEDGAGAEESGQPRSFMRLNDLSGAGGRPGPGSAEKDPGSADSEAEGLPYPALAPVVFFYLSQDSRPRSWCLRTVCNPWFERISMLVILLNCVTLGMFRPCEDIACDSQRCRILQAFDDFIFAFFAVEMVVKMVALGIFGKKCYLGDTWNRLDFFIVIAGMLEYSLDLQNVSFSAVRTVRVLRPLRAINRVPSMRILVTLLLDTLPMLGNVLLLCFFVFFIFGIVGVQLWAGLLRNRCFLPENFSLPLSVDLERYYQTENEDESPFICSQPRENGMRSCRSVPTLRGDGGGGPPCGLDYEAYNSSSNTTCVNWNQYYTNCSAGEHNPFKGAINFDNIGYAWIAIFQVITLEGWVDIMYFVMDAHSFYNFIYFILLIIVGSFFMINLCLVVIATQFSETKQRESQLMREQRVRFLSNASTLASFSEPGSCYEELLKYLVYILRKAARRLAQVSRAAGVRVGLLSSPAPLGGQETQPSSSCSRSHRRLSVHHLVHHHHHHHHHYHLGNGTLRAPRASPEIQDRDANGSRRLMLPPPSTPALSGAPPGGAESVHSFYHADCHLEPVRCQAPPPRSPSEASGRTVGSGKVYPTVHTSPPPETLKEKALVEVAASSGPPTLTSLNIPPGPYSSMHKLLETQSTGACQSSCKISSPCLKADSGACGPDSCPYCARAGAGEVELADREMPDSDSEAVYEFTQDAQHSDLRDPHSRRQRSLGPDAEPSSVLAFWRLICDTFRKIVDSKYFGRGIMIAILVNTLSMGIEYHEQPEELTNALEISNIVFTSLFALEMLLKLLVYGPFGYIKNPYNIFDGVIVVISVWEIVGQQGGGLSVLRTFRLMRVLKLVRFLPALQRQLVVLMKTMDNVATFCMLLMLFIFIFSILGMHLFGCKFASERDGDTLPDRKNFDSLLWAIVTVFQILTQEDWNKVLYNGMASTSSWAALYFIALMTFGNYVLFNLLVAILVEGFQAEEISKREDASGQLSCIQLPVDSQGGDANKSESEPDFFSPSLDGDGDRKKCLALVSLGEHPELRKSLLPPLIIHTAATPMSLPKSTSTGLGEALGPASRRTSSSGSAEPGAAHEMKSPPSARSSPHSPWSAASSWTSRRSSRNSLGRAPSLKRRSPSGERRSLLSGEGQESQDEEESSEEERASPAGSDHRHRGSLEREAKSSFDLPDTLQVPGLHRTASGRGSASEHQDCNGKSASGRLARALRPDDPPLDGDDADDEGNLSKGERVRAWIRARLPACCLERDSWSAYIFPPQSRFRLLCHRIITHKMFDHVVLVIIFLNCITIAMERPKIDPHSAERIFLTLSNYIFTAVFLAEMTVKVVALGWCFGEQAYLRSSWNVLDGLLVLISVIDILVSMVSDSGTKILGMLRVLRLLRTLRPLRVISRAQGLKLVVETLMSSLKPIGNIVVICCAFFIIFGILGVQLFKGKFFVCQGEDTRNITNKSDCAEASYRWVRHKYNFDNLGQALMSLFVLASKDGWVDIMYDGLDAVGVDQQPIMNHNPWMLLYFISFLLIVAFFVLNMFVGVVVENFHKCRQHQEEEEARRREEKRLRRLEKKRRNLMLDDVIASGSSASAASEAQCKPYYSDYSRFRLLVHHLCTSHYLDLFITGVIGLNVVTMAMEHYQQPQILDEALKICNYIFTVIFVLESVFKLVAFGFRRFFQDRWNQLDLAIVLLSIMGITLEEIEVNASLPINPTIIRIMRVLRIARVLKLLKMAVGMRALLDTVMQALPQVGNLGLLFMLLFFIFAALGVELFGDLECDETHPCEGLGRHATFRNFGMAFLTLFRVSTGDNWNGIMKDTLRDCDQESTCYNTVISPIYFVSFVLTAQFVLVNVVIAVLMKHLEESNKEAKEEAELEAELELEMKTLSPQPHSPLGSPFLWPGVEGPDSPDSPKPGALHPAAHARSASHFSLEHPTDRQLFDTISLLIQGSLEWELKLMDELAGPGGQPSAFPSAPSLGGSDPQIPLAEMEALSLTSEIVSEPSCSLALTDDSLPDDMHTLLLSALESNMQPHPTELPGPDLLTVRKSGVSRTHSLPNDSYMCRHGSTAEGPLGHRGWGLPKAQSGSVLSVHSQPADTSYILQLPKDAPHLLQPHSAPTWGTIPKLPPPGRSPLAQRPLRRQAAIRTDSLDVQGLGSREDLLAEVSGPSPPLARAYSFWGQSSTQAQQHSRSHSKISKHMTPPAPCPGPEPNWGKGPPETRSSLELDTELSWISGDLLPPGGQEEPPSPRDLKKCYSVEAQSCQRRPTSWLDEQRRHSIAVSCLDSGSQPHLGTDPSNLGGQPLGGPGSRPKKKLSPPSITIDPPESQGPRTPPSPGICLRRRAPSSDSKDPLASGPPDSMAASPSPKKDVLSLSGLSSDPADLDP

As usually defined, the IC50 is the point on the concentration scale where inhibition reaches its midpoint. As for `O=C(NC[C@H]1CC[C@H](NCc2ccccc2O)CC1)c1cc(C(F)(F)F)cc(C(F)(F)F)c1` [Compound 25, N-((trans-4-(2-hydroxybenzylamino)cyclohexyl)methyl)-3,5-bis(trifluoromethyl)benzamide], the values for the IC50 in test [1] and in test [2] were at most 300 nM and 2450 nM, respectively.
Turning to `O=C(NC[C@H]1CC[C@H](NCc2cccnc2F)CC1)c1cc(C(F)(F)F)cc(C(F)(F)F)c1` [Compound 27, N-((trans-4-((2-fluoropyridin-3-yl)methylamino)cyclohexyl)methyl)-3,5-bis(trifluoromethyl)benzamide], the IC50 was 1970 nM in test [1] and 9760 nM in test [2].
The corresponding values for `COc1ccccc1CN[C@H]1CC[C@H](CNC(=O)c2cc(C(F)(F)F)cc(C(F)(F)F)c2)CC1` [Compound 29, N-((trans-4-(2-methoxybenzylamino)cyclohexyl)methyl)-3,5-bis(trifluoromethyl)benzamide] are at most 300 nM and 800 nM.
On to `COc1cccnc1CN[C@H]1CC[C@H](CNC(=O)c2cc(C(F)(F)F)cc(C(F)(F)F)c2)CC1` [Compound 30, N-((trans-4-((3-methoxypyridin-2-yl)methylamino)cyclohexyl)methyl)-3,5-bis(trifluoromethyl)benzamide], for which the IC50 in test [1] amounted to 1060 nM; in test [2] it was 5830 nM.
Regarding `O=C(NC[C@H]1CC[C@H](NCc2cccc(F)c2O)CC1)c1cc(C(F)(F)F)cc(C(F)(F)F)c1` [Compound 31, N-((trans-4-(3-fluoro-2-hydroxybenzylamino)cyclohexyl)methyl)-3,5-bis(trifluoromethyl)benzamide], the IC50 in test [1] was at most 300 nM; in test [2] it was 2470 nM.
As for `O=C(NC[C@H]1CC[C@H](NCc2c(O)cccc2F)CC1)c1cc(C(F)(F)F)cc(C(F)(F)F)c1` [Compound 32, N-((trans-4-(2-fluoro-6-hydroxybenzylamino)cyclohexyl)methyl)-3,5-bis(trifluoromethyl)benzamide], the IC50 in test [1] was found to be 330 nM; in test [2], 3450 nM.
The matching figures for `COc1cccc(O)c1CN[C@H]1CC[C@H](CNC(=O)c2cc(C(F)(F)F)cc(C(F)(F)F)c2)CC1` [Compound 33, N-((trans-4-(2-hydroxy-6-methoxybenzylamino)cyclohexyl)methyl)-3,5-bis(trifluoromethyl)benzamide]: at most 300 nM and 710 nM.
As for `O=C(NC[C@H]1CC[C@H](NCc2c(F)cccc2Cl)CC1)c1cc(C(F)(F)F)cc(C(F)(F)F)c1` [Compound 34, N-((trans-4-(2-chloro-6-fluorobenzylamino)cyclohexyl)methyl)-3,5-bis(trifluoromethyl)benzamide], the half-inhibitory concentration (IC50) in test [1] is at most 300 nM; in test [2], 1970 nM.
The corresponding values for `COc1ccc(CN[C@H]2CC[C@H](CNC(=O)c3cc(C(F)(F)F)cc(C(F)(F)F)c3)CC2)c(OC)c1` [Compound 35, N-((trans-4-(2,4-dimethoxybenzylamino)cyclohexyl)methyl)-3,5-bis(trifluoromethyl)benzamide] are 390 nM and 770 nM.
For the molecule `O=C(NC[C@H]1CC[C@@H](NCC(=O)N2CCCC2)CC1)c1cc(C(F)(F)F)cc(C(F)(F)F)c1` [Compound 39, N-((cis-4-(2-oxo-2-(pyrrolidin-1-yl)ethylamino)cyclohexyl)methyl)-3,5-bis(trifluoromethyl)benzamide], the IC50 in test [1] came to 1330 nM; in test [2] it was 790 nM.
`CC(C)(C)NC(=O)CN[C@H]1CC[C@@H](CNC(=O)c2cc(C(F)(F)F)cc(C(F)(F)F)c2)CC1` [Compound 40, N-((cis-4-(2-(tert-butylamino)-2-oxoethylamino)cyclohexyl)methyl)-3,5-bis(trifluoromethyl)benzamide]: the values for the IC50 in test [1] and in test [2] were at most 300 nM and 190 nM, respectively.
Take `CCN(CC)C(=O)CN[C@H]1CC[C@@H](CNC(=O)c2cc(C(F)(F)F)cc(C(F)(F)F)c2)CC1` [Compound 41, N-((cis-4-(2-(diethylamino)-2-oxoethylamino)cyclohexyl)methyl)-3,5-bis(trifluoromethyl)benzamide]: the IC50 in test [1] is at most 300 nM; in test [2] it was 330 nM.
Regarding `CCC(CC)NC(=O)CN[C@H]1CC[C@@H](CNC(=O)c2cc(C(F)(F)F)cc(C(F)(F)F)c2)CC1` [Compound 42, N-((cis-4-(2-oxo-2-(pentan-3-ylamino)ethylamino)cyclohexyl)methyl)-3,5-bis(trifluoromethyl)benzamide], the IC50 in test [1] is at most 300 nM; in test [2], 120 nM.
As to `O=C(CN[C@H]1CC[C@@H](CNC(=O)c2cc(C(F)(F)F)cc(C(F)(F)F)c2)CC1)NCC(F)(F)F` [Compound 43, N-((cis-4-(2-oxo-2-(2,2,2-trifluoroethylamino)ethylamino)cyclohexyl)methyl)-3,5-bis(trifluoromethyl)benzamide], the half-maximal inhibitory concentration (IC50) was 910 nM in test [1] and 450 nM in test [2].
For `CN(C(=O)CN[C@H]1CC[C@@H](CNC(=O)c2cc(C(F)(F)F)cc(C(F)(F)F)c2)CC1)C1CCCC1` [Compound 44, N-((cis-4-(2-(cyclopentyl(methyl)amino)-2-oxoethylamino)cyclohexyl)methyl)-3,5-bis(trifluoromethyl)benzamide], the IC50 in test [1] is at most 300 nM; in test [2], 260 nM.
For `O=C(CN[C@H]1CC[C@@H](CNC(=O)c2cc(C(F)(F)F)cc(C(F)(F)F)c2)CC1)NN1CCCCC1` [Compound 45, N-((cis-4-(2-oxo-2-(piperidin-1-ylamino)ethylamino)cyclohexyl)methyl)-3,5-bis(trifluoromethyl)benzamide], the IC50 was at most 300 nM in test [1] and 450 nM in test [2].
In the case of `C#CC(CC)(CC)NC(=O)CN[C@H]1CC[C@@H](CNC(=O)c2cc(C(F)(F)F)cc(C(F)(F)F)c2)CC1` [Compound 47, N-((cis-4-(2-(3-ethylpent-1-yn-3-ylamino)-2-oxoethylamino)cyclohexyl)methyl)-3,5-bis(trifluoromethyl)benzamide], the IC50 is at most 300 nM in test [1] and 10 nM in test [2].
For the molecule `O=C(CN[C@H]1CC[C@@H](CNC(=O)c2cc(C(F)(F)F)cc(C(F)(F)F)c2)CC1)NCC1CCCCC1` [Compound 48, N-((cis-4-(2-(cyclohexylmethylamino)-2-oxoethylamine)cyclohexyl)methyl)-3,5-bis(trifluoromethyl)benzamide], the IC50 came out at 350 nM in test [1] and 250 nM in test [2].
The corresponding values for `COC1CCC(N(C)C(=O)CN[C@H]2CC[C@@H](CNC(=O)c3cc(C(F)(F)F)cc(C(F)(F)F)c3)CC2)CC1` (stereo partly drawn) [Compound 50, N-((cis-4-(2-((4-methoxycyclohexyl)(methyl)amino)-2-oxoethylamino)cyclohexyl)methyl)-3,5-bis(trifluoromethyl)benzamide] are 4280 nM and 2470 nM.
With `CC(C)(C)c1nc(CN[C@H]2CC[C@@H](CNC(=O)c3cc(C(F)(F)F)cc(C(F)(F)F)c3)CC2)no1` [Compound 51, N-((cis-4-((5-tert-butyl-1,2,4-oxadiazol-3-yl)methylamino)cyclohexyl)methyl)-3,5-bis(trifluoromethyl)benzamide], the IC50 in test [1] came to 1150 nM; in test [2], 820 nM.
Consider `Cc1cc(CN[C@H]2CC[C@@H](CNC(=O)c3cc(C(F)(F)F)cc(C(F)(F)F)c3)CC2)no1` [Compound 52, N-((cis-4-((5-methylisoxazol-3-yl)methylamino)cyclohexyl)methyl)-3,5-bis(trifluoromethyl)benzamide], for which the IC50 is 1240 nM in test [1] and 1330 nM in test [2].
`CCC1CCCN1C(=O)CN[C@H]1CC[C@@H](CNC(=O)c2cc(C(F)(F)F)cc(C(F)(F)F)c2)CC1` (stereo partly drawn) [Compound 54, N-((cis-4-(2-(2-ethylpyrrolidin-1-yl)-2-oxoethylamino)cyclohexyl)methyl)-3,5-bis(trifluoromethyl)benzamide]: the IC50 was at most 300 nM in test [1] and 210 nM in test [2].
With `CC(C)(C)NC(=O)CN[C@H]1CC[C@H](CNC(=O)c2cc(C(F)(F)F)cc(C(F)(F)F)c2)CC1` [Compound 55, N-((trans-4-(2-(tert-butylamino)-2-oxoethylamino)cyclohexyl)methyl)-3,5-bis(trifluoromethyl)benzamide], the IC50 in test [1] was at most 300 nM; in test [2], 370 nM.
